Experimental data reported in patent US7008931B2, “Anti-inflammatory and healing medicine based on laminarin sulphate” (Laboratoires GOEMAR S.A., priority 2000, dated 2006).

Key:
[1] = test system: complement system (obtained from human serum), alternative route; experiment: inhibition of the activation of the complement by the alternative route (hemolysis of rabbit erythrocytes); type: biochemical; conditions: for IC (50), inhibition of the complement by the alternative route: laminarin sulphate without incubation
Excerpt: (§1) Test 1: Measuring of the Anti-Complementary Activity
(§2) The complement system plays a key role in the inflammatory processes induced by infections. The substances which inhibit in vitro the activation of the complement are potentially in vivo anti-inflammatory products.
(§3) The activation of the complement can be carried out by the classical route in which the system antigen-antibody plays a role, or by the so-called alternative route. The anti-complementary activity of laminarin sulphate has been examined in vitro in comparison to that of the above heparin of low molecular weight used as reference (HBPM).
(§4) The evaluation of the anti-complementary reactivity is carried out by photometric or colorimetric measurement of the hemoglobin freed by lysis of the erythrocytes. The erythrocytes used are sheep antibody-sensitized erythrocytes for the classical route and rabbit erythrocytes for the altern route.
(§5) In a first step, the product to be tested and the complement system (obtained from human serum) are put into contact with one another and if necessary incubated during 30 minutes and then, in a second step, they are put into contact with the erythrocytes during 45 minutes.
(§6) The more the test product inhibits the complement, the more the lysis of the erythrocytes is weak and the less the amount of freed hemoglobin is important.
(§7) The anti-complementary activity is expressed in IC (50) (IC meaning “inhibiting concentration”) which designates the concentration expressed in […] of test substance per ml of mixture of the test substance and the serum (μg/ml), concentration which is necessary to inhibit by 50% the activity of the complement.

[2] = test system: polymorphnuclear neutrophiles (PMN); experiment: chemotaxy of granulocytes, Boyden Chamber test with C5a (human serum activated with Zymosan); type: cell-based
Excerpt: Test 2: Examination of the Influence on the Chemiotaxy of the Granulocytes
The polymorphnuclear neutrophiles or PMN are cells which are characteristic of the infiltrate of the acute inflammation. The movement or the migration of neutrophiles from inside of the blood vessels in direction of the tissues is provoked by molecules which are called chemotaxins. Two chemotaxins are particularly important in the case of the polynuclear neutrophiles, i.e. the fragment C5a of the complement and the interleukin 8 (IL-8). The movement of the neutrophiles can be aleatory (which means that a so called chemokinesis occurs) or can be oriented along the length of a gradient of chemotaxins.
Consequently, the ability of laminarin sulphate to inhibit the chemotaxy of […] was examined; this study has been carried out in vitro by way of the test called Test of the Boyden Chamber (a variant of the Boyden Chamber having 96 holes was used) the fragment C5a in the form of human serum activated with Zymosan having been used as chemiotaxin. As shown on FIG. 2, the Boyden Chamber comprises 2 compartments respectively 1 and 2 which are separated by a membrane 3 consisting of polycarbonate (dimension of the pores 3 μm). The pores of the said membrane authorize the active passing of the cells but not their passive diffusion.
The polymorphnuclear neutrophiles PMN are placed in the higher compartment 2 together with the substance to be tested at various doses. The C5a is placed in the lower compartment.
The measurement of the inhibition of the chemotaxy is carried out by numbering the cells which have been attracted in the lower compartment. For the numbering of the cells, they are lysed with Triton X, and the free peroxidase is then quantified by adding 2,2-azino-di-[3-ethylbenzo-thiazoline] sulfonate or ABTS marketed by Boehringer Mannheim and by measuring at 405 nm the extinction of the colored product which has been formed.

[3] = test system: complement system (obtained from human serum), classical route; experiment: inhibition of the activation of the complement by the classical route (hemolysis of sheep antibody-sensitized erythrocytes); type: biochemical
Excerpt: as §1, §2, §3, §4, §5, §6, §7

P-selectin = target: T1, P-selectin (Homo sapiens, UniProt P16109); experiment: cellular adhesion on immobilized P-selectin under static conditions (U 937 cells); type: cell-based
T1 sequence (P16109 42-830): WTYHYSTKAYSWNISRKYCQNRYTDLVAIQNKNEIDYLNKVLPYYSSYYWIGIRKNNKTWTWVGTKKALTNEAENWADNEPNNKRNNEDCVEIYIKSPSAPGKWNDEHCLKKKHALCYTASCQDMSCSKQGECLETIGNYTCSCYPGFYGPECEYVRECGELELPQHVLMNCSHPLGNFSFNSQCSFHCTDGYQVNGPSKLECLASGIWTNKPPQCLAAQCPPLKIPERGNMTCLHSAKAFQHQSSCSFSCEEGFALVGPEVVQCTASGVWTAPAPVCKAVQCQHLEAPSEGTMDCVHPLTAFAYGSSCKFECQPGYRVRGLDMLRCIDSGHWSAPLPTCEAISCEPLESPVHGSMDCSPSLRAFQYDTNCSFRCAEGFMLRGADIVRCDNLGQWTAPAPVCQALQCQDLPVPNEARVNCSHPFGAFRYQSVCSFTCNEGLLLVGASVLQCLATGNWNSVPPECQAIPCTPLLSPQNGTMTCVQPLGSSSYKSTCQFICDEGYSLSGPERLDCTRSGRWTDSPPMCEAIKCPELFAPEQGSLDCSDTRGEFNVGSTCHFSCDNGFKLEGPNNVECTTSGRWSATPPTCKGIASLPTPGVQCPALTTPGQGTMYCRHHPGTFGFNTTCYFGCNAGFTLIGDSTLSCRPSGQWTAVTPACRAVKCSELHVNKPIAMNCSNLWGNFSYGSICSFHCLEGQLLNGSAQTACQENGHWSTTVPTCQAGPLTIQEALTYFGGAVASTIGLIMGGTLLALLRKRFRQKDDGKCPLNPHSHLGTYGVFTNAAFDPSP
Excerpt: (§8) Test 3: Influence on the Adhesion of the Cells Induced by Selectin
(§9) Consequently, the effect of laminarin sulphate has been examined through the direct quantification of the cells bond to the selectins immobilized on microplates.
(§10) The influence of the laminarin sulphate on the adhesion of the cells due to the selectins has been studied first under static conditions as schematically shown on FIG. 3a (E-selectins or P-selectins) and 3b (L-selectins). The selectin has been deposited on a microtitration plate; in that respect and in the case of L-selectin the human chimera Fc of L-selectin has been used. Then, the plate was incubated with the test substance and with cells carrying the ligands of the corresponding selecting, that is to say in the case of L-selectin the human cellular line LS 180 of the adenocarcinoma of the colon and in the case of the selectins P and E the human lymphomic cellular line U 937.
(§11) The number of cells bond to the microtitration plate after washing and subsequent lysis of these cells was determined and their lactate dehydrogenase content was determined by way of an enzymatic reaction.

[4] = test system: human chimera Fc of L-selectin; experiment: cellular adhesion on immobilized L-selectin under static conditions (LS 180 cells); type: cell-based
Sequence of human chimera Fc of L-selectin (P14151 39-318 limits assumed, change not shown): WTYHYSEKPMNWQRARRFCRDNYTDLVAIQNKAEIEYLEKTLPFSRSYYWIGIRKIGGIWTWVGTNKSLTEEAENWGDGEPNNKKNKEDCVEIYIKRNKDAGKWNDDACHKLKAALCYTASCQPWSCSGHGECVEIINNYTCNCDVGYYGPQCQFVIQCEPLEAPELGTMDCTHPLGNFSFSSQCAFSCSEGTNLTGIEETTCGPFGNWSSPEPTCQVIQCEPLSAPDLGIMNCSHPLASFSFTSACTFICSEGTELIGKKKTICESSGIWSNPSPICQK
Excerpt: as §8, §9, §10, §11

[5] = test system: edema of the ear of the mouse induced with croton oil; experiment: edema of the ear of the mouse induced with croton oil; type: in vivo; conditions: for equipotent amount per ear for inhibition of inflammation: topical, with 70 μg croton oil, 4 hours
Description: The topic activity which inhibits inflammation and which is presented by laminarin sulphate, has been tested in the model constituted by the edema of the ear of the mouse induced with croton oil. The control was indomethacin. The tested animals were male mice of the type Swiss CD-1 whose weight was 20 to 25 g. Three groups of tests were carried out on three groups of animals. The first group is a negative control group wherein only the pro-inflammatory agent consisting of croton oil was used. The second group is a positive control group and comprises the use of croton oil and of indomethacin (200 nMol/ear which corresponds to 71.56 μg/ear). The third group relates to the use of laminarin sulphate and comprises the use of 70 μg of croton oil and of increasing amounts of laminarin sulphate (100, 250, 500, 750 and 1000 μg/ear).
In the case of the control groups, of the group of reference and of the group comprising the use of the different concentrations of laminarin sulphate, 10 mice were used each time. […] On each ear (surface of about 1 cm^2) 70 μg of croton oil were applied at the same time as indomethacin or laminarin sulphate or dexamethasone. Four hours later, samples having a diameter of 7 mm were cut up and weighed.
For the statistical exploitation an analysis of the variance (ANOVA) as well as the Scheffe test were carried out.

[6] = test system: MDA-MB-231, MCF, U937, LS180 cellular lines; experiment: cytotoxicity tests (5 days proliferation with crystal violet or MTT, acute LDH kit); type: cell-based, human; conditions: highest tested concentration, 100 μg/ml
Description: In order to test cytoxicity, the following cellular lines were used: MDA-MB-231 (human mammary carcinoma); MCF (human mammary carcinoma); U937—(human lymphoma); and, LS180 (human adenocarcinoma).
The test used is a 5 days proliferation test and the determination of the number of living cells was carried out by coloration with crystallin violet or crystallin purple. A 5 day proliferation test with determination of the number of living cells using the test MTT has also been carried out. Finally the acute cytotoxicity has been determined using a kit marketed by the company Boehringer Mannheim under the title “Cytotoxicity detection kit” (LDH).

factor Xa = experiment: specific anti-factor Xa test using chromogeneous substrates; type: biochemical
Excerpt: (§12) The effect in the case of the duration of thrombin can be considered as being due to an inhibition of thrombin dependent from the cofactor II heparin. […] For that reason and due to the better effect in the systems of anti-inflammatory tests, the profile “utility/risk” moves in the case of laminarin sulphate unequivocally in the sense of an anti-inflammatory effect. It follows that the anti-inflammatory properties of laminarin sulphate can be advantageously used without the apprehension of undesirable side effects on coagulation.

[7] = test system: intrinsic system of the coagulation; experiment: coagulation test APTT; type: biochemical
Excerpt: (§13) The anti-coagulant activity which depends from the concentration of laminarin sulphate has been determined in comparison with that of heparin in the classical coagulation tests APTT or “Aktivierte partielle Thromboplastin-Zeit”, of the duration of the prothrombin, by way of the test so called “HEPTEST” and the duration of the thrombin. The APTT reflects an interaction with the intrinsic system of the coagulation while the duration of prothrombin reflects an interaction with the extrinsic coagulation; the so called “HEPTEST” is a classical test for the measurement of the inhibiting activity of heparin with respect to the Xa factor and the duration of thrombin corresponds to the last step of the coagulation, i.e. the formation of fibrins induced by the thrombin. In contradiction with that of heparin, the activity of laminarin sulphate in the so called “HEPTEST” is more than 20 times weaker. […] The specific activity (IU/mg) in the APTT represents 30% of the activity of heparin and in the case of the duration of thrombin it represents 60%. In order to totally prevent the coagulation it is convenient to use in the case of APTT a concentration 4 times higher and in the case of the duration of thrombin a concentration 20 times higher.

thrombin [8] = experiment: duration of the thrombin coagulation test; type: biochemical
Excerpt: as §13

extrinsic coagulation = experiment: duration of the prothrombin coagulation test; type: biochemical
Excerpt: as §13

Xa factor = experiment: HEPTEST coagulation test; type: biochemical; conditions: relative to heparin
Excerpt: as §13

thrombin [9] = experiment: specific anti-thrombin test using chromogeneous substrates; type: biochemical
Excerpt: as §12

Compound: heparin [reference compound]
- IC (50), inhibition of the complement by the alternative route [1]: 464 µg/mL
- inhibition of the cellular migration ([2]; 1.67 μg/ml): not inhibited
- inhibition of the cellular migration ([2]; 4.2 μg/ml): 10%±5%
- IC (50), inhibition of the activation of the complement by the classical way [3]: 43.7 ± 1.9 µg/mL
- Inhibition expressed in % of the cellular adhesion on P-selectin (P-selectin; 5 μg/ml): 12 ± 5%
- Inhibition expressed in % of the cellular adhesion on P-selectin (P-selectin; 25 μg/ml): 30 ± 4%
- Inhibition expressed in % of the cellular adhesion on L-selectin ([4]; 5 μg/ml): 15 ± 5%
- Inhibition expressed in % of the cellular adhesion on L-selectin ([4]; 25 μg/ml): 32 ± 3%

Compound: COc1ccc2c(c1)c(CC(=O)O)c(C)n2C(=O)c1ccc(Cl)cc1 [indomethacin, reference compound]
- equipotent amount per ear for inhibition of inflammation [5]: 72 μg per ear

Compound: laminarin sulphate
- times more active on the inhibition of the complement than heparin [1]: 10 times
- prolongation of the activity of the complement ([1]; dose of 2.4 μg/ml): 50%
- prolongation of the activity of the complement ([1]; laminarin sulphate at low concentrations): more than 100%
- IC (50), inhibition of the complement by the alternative route [1]: 43 µg/mL
- cytotoxic effect [6]: no cytotoxic effect was noticed
- inhibition of the cellular migration ([2]; 1.67 μg/ml): 50%±6%
- anti-factor Xa activity dependent from anti-thrombin (factor Xa): does not present a significant anti-factor Xa activity
- IC (50), inhibition of the activation of the complement by the classical way [3]: 0.54 ± 0.06 µg/mL
- times more active on the inhibition of the complement than heparin [3]: 80 times
- concentration to totally prevent the coagulation, times higher than heparin ([7]; APTT): 4 times
- specific activity (IU/mg) in the APTT as % of the activity of heparin ([7]; relative to heparin): 30%
- concentration to totally prevent the coagulation, times higher than heparin (thrombin [8]; duration of thrombin): 20 times
- specific activity (IU/mg) in the duration of thrombin as % of the activity of heparin (thrombin [8]; relative to heparin): 60%
- Inhibition expressed in % of the cellular adhesion on P-selectin (P-selectin; 5 μg/ml): 50 ± 2%
- Inhibition expressed in % of the cellular adhesion on P-selectin (P-selectin; 25 μg/ml): 63 ± 3%
- anti-coagulant effect on the duration of prothrombin (extrinsic coagulation): no pronounced anti-coagulant effect
- activity in the HEPTEST, times weaker than heparin (Xa factor): more than 20 times
- times more active than indomethacin from the molar point of view ([5]; 25 nMol laminarin sulphate vs 200 nMol indomethacin): nine
- inhibiting activity when applied after croton oil instead of simultaneously ([5]; control experiment, applied after croton oil): no difference
- efficiency compared with dexamethasone ([5]; equimolar concentration of 0.12 mmol/ear): more efficient than dexamethasone
- equipotent amount per ear for inhibition of inflammation [5]: 250 μg per ear
- anti-thrombin activity (thrombin [9]): nor an anti-thrombin activity
- Inhibition expressed in % of the cellular adhesion on L-selectin ([4]; 5 μg/ml): 33 ± 1%
- Inhibition expressed in % of the cellular adhesion on L-selectin ([4]; 25 μg/ml): 89 ± 10%
